According to patent US6403626B1, “Benzimidazole derivatives” (Synaptic Pharmaceutical Corporation, priority 1994, dated 2002):
pKi: −log10 of the molar value.

Key:
[1] = tested on: Adult rhesus monkeys (Macaca mulatta); assay: Sedation and muscle relaxation rating; assay type: in vivo; settings: subcutaneous, cumulative dosing 0.1-3.2 mg/kg, versus clonidine 0.032-1.0 mg/kg
From the text: Subjects. Adult rhesus monkeys (Macaca mulatta) of either sex were housed individually with free access to water. They were fed fresh fruit weekly and approximately 40 biscuits (Purina Monkey Chow) daily.
Procedure. Monkeys were trained to receive subcutaneous injections while in their home cages; they were rated by one non-blind observer familiar with the individual subjects, according to modified rating scales for sedation and muscle relaxation (Table 2); Separate scales describe increasing degrees of sedation (as measured by responsiveness to stimuli) and muscle relaxation (as observed through changes in posture). Animals were injected in a cumulative dosing procedure with a 30 minute interinjection interval; observer rating on both scales took place approximately 15 minutes after each injection.
Design. […] The same three monkeys were typically studied under each se of conditions.

[2] = biological target: α2C Human Adrenergic Receptor (Homo sapiens, UniProt P18825); assay: Equilibrium competition binding, [3H] rauwolscine, membranes of transfected LM(tk-) cells
Chain of α2C Human Adrenergic Receptor (P18825 whole entry, looked up): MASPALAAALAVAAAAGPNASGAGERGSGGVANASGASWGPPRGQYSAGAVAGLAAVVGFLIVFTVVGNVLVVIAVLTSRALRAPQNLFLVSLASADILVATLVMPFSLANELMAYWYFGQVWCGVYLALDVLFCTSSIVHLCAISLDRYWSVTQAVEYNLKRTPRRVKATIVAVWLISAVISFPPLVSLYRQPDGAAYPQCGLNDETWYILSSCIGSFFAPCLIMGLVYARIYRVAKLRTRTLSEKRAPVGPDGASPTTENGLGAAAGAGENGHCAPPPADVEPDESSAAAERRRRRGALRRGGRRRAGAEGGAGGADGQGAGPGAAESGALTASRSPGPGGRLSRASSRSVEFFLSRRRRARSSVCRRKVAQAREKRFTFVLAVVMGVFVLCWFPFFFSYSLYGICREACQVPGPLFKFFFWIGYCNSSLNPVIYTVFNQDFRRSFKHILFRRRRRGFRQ

## Cc1c(N=C2NCCN2)ccc2[nH]cnc12 [Example 4, 4-Methyl-5-(2-imidazolin-2-ylamino)Benzimidazole]
[1]
  sedation: decreased sedation relative to the reference compound, clonidine

## FC(F)(F)c1nc2ccc(NC3=NCCN3)c(Br)c2[nH]1 [Example 46, 2-Trifluoromethyl-4-bromo-5-(2-imidazolin-2-ylamino)Benzimidazole]
[2]
  pKi: 5.83
